Results: patent US10577337B2, “Compositions and methods of treatment with prodrugs of tizoxanide, an analogue or salt thereof” (Romark Laboratories, L.C., priority 2014, dated 2020)

Experiments:
[1] = humans, cited from earlier work
[2] = Aqueous solubility; assay type: physicochemical

SMILES | effect of food on absorption ([1]; administered with food) | aqueous solubility, descriptive term [2] | solubility ([2]; aqueous) | half-life of tizoxanide in plasma ([1]; after oral nitazoxanide or nitazoxanide plus tizoxanide)
CC(=O)Oc1ccccc1C(=O)Nc1ncc([N+](=O)[O-])s1 [nitazoxanide, 2-(acetolyloxy)-N-(5-nitro-2-thiazolyl)benzamide] | approximately doubled with food | practically insoluble | < 100 µg/mL | –
O=C(Nc1ncc([N+](=O)[O-])s1)c1ccccc1O [tizoxanide] | – | – | – | approximately 1.5 hours
